Earlier results on one compound are cited in publication PMC6882435, “Preparation and study of two kinds of ophthalmic nano-preparations of everolimus” (Drug Delivery, 2019).

On the set-up of series [1]: method as in Baspinar et al., 2008; Tedesco-Silva et al., 2019. The note with it: patients that take the drug (systemic, oral); ref Baspinar et al., 2008; Tedesco-Silva et al., 2019.
Details of series [2]: method as in Iwase & Maitani, 2012. The conditions noted are these: raw material at room temperature; ref Iwase & Maitani, 2012.

For `CO[C@H]1C[C@@H]2CC[C@@H](C)[C@@](O)(O2)C(=O)C(=O)N2CCCC[C@H]2C(=O)O[C@H]([C@H](C)C[C@@H]2CC[C@@H](OCCO)[C@H](OC)C2)CC(=O)[C@H](C)/C=C(\C)[C@@H](O)[C@@H](OC)C(=O)[C@H](C)C[C@H](C)/C=C/C=C/C=C/1C` [Everolimus, 4 O-O-(2-hydroxyethyl)-rapamycin], the “patients with side effects such as thrombocytopenia and dyslipidemia” value in series [1] is listed as “about 30%”. The solubility result in series [2] is “about 9.6 μg·mL^−1”.
